Reference: US6552073B1, “Compounds and methods of treating cell proliferative diseases” (Exonhit Therapeutics SA, priority 2002, dated 2003)
“Also recorded” adds a separate entry of the source.

Key:
[1] = system: NIH3T3 cells transfected with RasV12; assay: Colony formation assay in the presence of constitutively activated Ras (RasV12); type: cell-based, mouse; design: key to Colony formation: −: no effect of the compound was observed; +: an effect of the compound was observed; conditions: NIH3T3, neoR colonies
Method: c) Ras/Rac-dependant Signaling Pathway Analysis
The impact of the compounds on Ras and Rac signaling pathways was analysed with two reporter systems described by Imler (Nature 1988) and Lin (Science, 1995) respectively on one hand, and by a colony formation assay in the presence of constitutively activated Ras (RasV12) and Rac (RacV12) on the other hand. For this latter experiment, fifty percent confluent NIH3T3 cells in a 10 cm diameter petri dish were transfected with 0.5 μg pSV2-RasV12 or 0.5 μg pEXV RacV12 plasmids plus 100 ng of pSV2-neomycin plasmid using Lipofectamine-Plus reagent (Invitrogen) according to the manufacturer's instructions. Forty-eight hours later, cells were trypsinised, splitted to 1/3, and incubated in the presence of complete medium supplemented with 400 μg/ml geneticin (Invitrogen) and different doses of compound (1, 10, 17.5, 25 and 50 μM) until emerging resistant clones appear (2-3 weeks). The medium was renewed every 3 days. Colonies with a minimum of 50 cells were counted after staining with Fuschin 2%.

[2] = system: NIH3T3; assay: Cytoskeleton analysis, actin staining; type: cell-based, mouse
Method: (§1) Since major rearrangements of cytoskeleton are observed in tumor cells and since the small GTPases are known to regulate these events, analysis of actin cytoskeleton was performed. Subconfluent cells seeded onto coverslips were treated with different concentration of compound (1, 10, 17.5, 25 and 50 μM) or vehicle for 24 h, before being fixed in 4% formaldehyde for 15 min., permeabilized in 0.2% Triton X100 for 5 minutes and incubated in PowerBlock (Biogenex) for 10 min. Actin filaments were stained with 0.5 μg/ml fluorescein isothiocyanate (FITC)-labelled phalloidin for 1 hour. Analysis was performed using an inverted fluorescent microscope.

[3] = system: MDA231; assay: Cytoskeleton analysis, actin staining; type: cell-based, human
Method: as §1

[4] = system: MDA-MB-231 cells; assay: Matrigel invasion assay (Boyden chamber); type: cell-based, human; conditions: MDA-MB-231, Boyden chamber, matrigel
Method: d) Migration and Matrigel Invasion Assay
Chemoinvasion assay was performed in Boyden chamber as described by Albini et al (Cancer Res, 1987) with some modifications. Polycarbonate membranes with 8μm pores were coated with matrigel (125 μg/cm^2) at room temperature for 48 h. Two hours before experiments, the matrix was […] with serum-free medium containing 0.1% BSA.
One day after seeding, 10^6 MDA-MB-231 cells were treated overnight with different concentrations of compounds (1, 10, 17.5, 25 and 50 μM). Cells were collected with Versene (Invitrogen), counted with trypan blue exclusion, rinsed twice in serum-free medium containing 0.1% BSA and resuspended in serum-free medium containing 0.1% BSA plus the appropriate concentration of compound. 10^5 treated cells were placed in the upper chamber. Medium containing 10% of FBS plus the appropriate concentration of compound was placed in the lower chamber as a chemoattractant. The Boyden chamber was incubated 6 hours at 37° C. before the cells were fixed and stained with Diff-Quick (Dade-Berhing). Cells on the upper part of the filters were removed using a cotton swab. Cells on the underside of the filters were visualised and counted under light microscope. The migration assay was performed the same way, using non-coated filters.

| SMILES | melting point | further results |
| --- | --- | --- |
| CCOc1ccccc1OCCCCCOc1coc(C(=O)O)cc1=O [EH4701, 5-[5-(2-Ethyloxyphenyloxy)pentyloxy]-4-oxo-4H-pyran-2-carboxylic acid] | 141 to 142 °C |  |
| O=c1cc(CO)occ1OCCCCCOc1ccc(Cl)c(Cl)c1 [EH5500, 5-[5-(3,4-Dichlorophenyloxy)pentyloxy]-2-(hydroxymethyl)-4H-pyran-4-one] | 97 to 99 °C | Colony formation [1]: −; Cell architecture modification, actin staining NIH3T3, general observation [2]: affected the general morphology; also recorded: cell destructuration |
| O=c1cc(COCc2ccccc2)occ1OCCCCCOc1ccc(Cl)c(Cl)c1 [EH7701, 2-(Benzyloxymethyl)-5-[5-(3,4-dichlorophenyloxy)pentyloxy]-4H-pyran-4-one] | 82 to 83 °C | Cell architecture modification, actin staining MDA231, general observation [3]: cell spreading; Invasion [4]: No significant effect |
| C/C=C/c1oc(CO)cc(=O)c1OCCCCCOc1ccccc1CCC [EH9301, (E)-6-(Hydroxymethyl)-2-(propen-1-yl)-3-[5-(2-propylphenyloxy)pentyloxy]-4H-pyran-4-one] | 67 to 68 °C | Colony formation [1]: −; Invasion [4]: No significant effect |
| C/C=C/c1oc(C(=O)O)cc(=O)c1OCCCCCOc1ccc(Cl)c(Cl)c1 [EH10501, (E)-3-[5-(3,4-Dichlorophenyloxy)pentyloxy]-2-(propen-1-yl)-4-oxo-4H-pyran-6-carboxylic acid] | 118 to 119 °C |  |
| O=c1cc(CO)occ1OCCCCCOc1cccc(Cl)c1 [EH10600, 5-[5-(3-Chlorophenyloxy)pentyloxy]-2-(hydroxymethyl)-4H-pyran-4-one] | 87 to 88 °C | Colony formation [1]: −; Cell architecture modification, actin staining NIH3T3, general observation [2]: affected the general morphology; also recorded: cell destructuration |
| C/C=C/c1oc(C(=O)O)cc(=O)c1OCCCCCOc1ccccc1CCC [EH15301, (E)-2-(Propen-1-yl)-3-[5-(2-propylphenyloxy)pentyloxy]-4-oxo-4H-pyran-6-carboxvlic acid] | 145 to 146 °C |  |
| O=C(O)c1cc(=O)c(OCCCCCOc2cccc(Cl)c2)co1 [EH15700, 5-[5-(3-Chlorophenyloxy)pentyloxy]-4-oxo-4H-pyran-2-carboxylic acid] | 160 to 161 °C |  |
| C/C=C/c1oc(CO)cc(=O)c1OCCCCCOc1cccc(Cl)c1 [EH16201, (E)-3-[5-(3-Chlorophenyloxy)pentyloxy]-6-(hydroxymethyl)-2-(propen-1-yl)-4H-pyran-4-one] | 50 to 51 °C |  |
| C/C=C/c1oc(C(=O)O)cc(=O)c1OCCCCCOc1ccc(Cl)cc1 [EH17401, (E)-3-[-5-(4-Chlorophenyloxy)pentyloxy]-2-(propen-1-yl)-4-oxo-4H-pyran-6-carboxylic acid] | 136 to 137 °C |  |
| O=C(O)c1cc(=O)c(OCCCCCOc2ccc(Cl)cc2)co1 [EH17600, 5-[5-(4-Chlorophenyloxy)pentyloxy]-4-oxo-4H-pyran-2-carboxylic acid] | 154 to 156 °C |  |
| O=c1cc(CO)occ1OCCCCOc1ccc(Cl)c(Cl)c1 [EH17700, 5-[4-(3,4-Dichlorophenyloxy)butyloxy]-2-(hydroxymethyl)-4H-pyran-4-one] | 107 to 108 °C | Colony formation [1]: − |
| C/C=C/c1oc(C(=O)O)cc(=O)c1OCCCCCOc1cccc(Cl)c1 [EH18401, (E)-3-[5-(3-Chlorophenyloxy)pentyloxy]-2-(propen-1-yl)-4-oxo-4H-pyran-6-carboxylic acid] | 116 to 117 °C |  |
| O=C(O)c1cc(=O)c(OCCCCOc2ccc(Cl)c(Cl)c2)co1 [EH20700, 5-[4-(3,4-Dichlorophenyloxy)butyloxy]-4-oxo-4H-pyran-2-carboxylic acid] | 182 to 183 °C |  |
| C/C=C/c1oc(CO)cc(=O)c1OCCCCCOc1ccc(Cl)cc1 [EH26101, (E)-3-[5-(4-Chlorophenyloxy)pentyloxy]-6-(hydroxymethyl)-2(propen-1-yl)-4H-pyran-4-one] | 84 to 85 °C |  |
| O=C(NCc1ccccc1)c1cc(=O)c(OCCCCCOc2ccc(Cl)cc2)co1 [EH28900, N-Benzyl-5-[5-(4-Chlorophenyloxy)pentyloxy]-4-oxo-4H-pyran-2-carboxamide] | 125 to 126 °C |  |
| C/C=C/c1oc(CO)cc(=O)c1OCCCCCOc1ccc(Cl)c(Cl)c1 [EH30101] | 100 to 101 °C |  |

Now from value to molecule, other results behind:

| melting point | SMILES | further results |
| --- | --- | --- |
| 159 to 161 °C | O=C(O)c1cc(=O)c(OCCCCCOc2ccc(Cl)c(Cl)c2)co1 [EH6600, 5-[5-(3,4-Dichlorophenyloxy)pentyloxy]-4-oxo-4H-pyran-2-carboxylic acid] |  |
| 86 to 87 °C | CCCc1c(OCCCCCCOc2coc(CO)cc2=O)ccc(Cl)c1Cl [EH16701, 5-[6-(3,4-Dichloro-2-propylphenyloxy)hexyloxy]-2-(hydroxymethyl)-4H-pyran-4-one] | Cell architecture modification, actin staining MDA231, general observation [3]: cell spreading; Invasion [4]: No significant effect |
| 62 to 64 °C | CCCc1c(OCCCCCCCOc2coc(CO)cc2=O)ccc(Cl)c1Cl [EH17701, 5-[7-(3,4-Dichloro-2-propylphenyloxy)heptyloxy]-2-(hydroxymethyl)-4H-pyran-4-one] | Cell architecture modification, actin staining MDA231, general observation [3]: cell spreading |
| 75 to 76 °C | CCOc1ccccc1OCCCCCOc1coc(CO)cc1=O [EH18601, 5-[5-(2-Ethyloxyphenyloxy)pentyloxy]-2-(hydroxymethyl)-4H-pyran-4-one] | Invasion [4]: No significant effect |
| 161 to 162 °C | C/C=C/c1oc(C(=O)O)cc(=O)c1OCCCCCOc1ccc(Cl)c(Cl)c1CCC [EH22501, (E)-3-[5-(3,4-Dichloro-2-propylphenyloxy)pentyloxy]-2-(propen-1-yl)-4-oxo-4H-pyran-6-carboxylic acid] |  |
| 145 to 146 °C | CCCc1ccccc1OCCCCCOc1coc(C(=O)O)cc1=O [EH26900, 5-[5-(2-Propylphenyloxy)pentyloxy]-4-oxo-4H-pyran-2-carboxylic acid] |  |
| 155 to 156 °C | CCCc1c(OCCCCCOc2coc(C(=O)O)cc2=O)ccc(Cl)c1Cl [EH27900, 5-[5-(3,4-Dichloro-2-propylphenyloxy)pentyloxy]-4-oxo-4H-pyran-2-carboxylic acid] |  |
| 83 to 84 °C | CCCc1cc(Cl)c(Cl)cc1OCCCCCOc1coc(CO)cc1=O [EH30701, 5-[5-(4,5-Dichloro-2-propylphenyloxy)pentyloxy]-2-(hydroxymethyl)-4H-pyran-4-one] | Cell architecture modification, actin staining MDA231, general observation [3]: cell spreading |
